Data from EP4792817A1, “COMPOUND AND METHOD FOR TREATING AND/OR […] CANCER OR PR[…] THEREOF” (EnKang Pharmaceuticals (Guangzhou), Ltd., priority 2023, dated 2025).
≈ marks a conversion by molar mass, not a printed value. Like-named read-outs stand apart in the source and are kept apart here.

Legend:
[1] = system: COLO-16 cells; assay: cells; details: for IC50: test concentrations in ng/mL
Method: (§1) The experimental procedures were as follows: The cells were subcultured in a complete medium containing 10% FBS in an incubator at 37 °C with 5% CO2 and saturated humidity. The cell density was adjusted to (3-5) × 10^4 cells/mL using a complete medium containing 10% FBS. The cell suspension was added to the wells of a 96-well culture plate at 100 µL/well, and the plate was incubated in an incubator at 37 °C with 5% CO2 and saturated humidity overnight (for about 16-24 hrs). Various dose groups of the test substance and a solvent control group were set. On the next day, the original culture medium was discarded. Subsequently, 20% FBS-containing complete medium was added at 100 µL/well, and the test substance or solvent in FBS-free medium was then added at 100 µL/well, resulting in a final FBS concentration of 10%. Meanwhile, a negative control group was set: each well received 100 µL of 20% FBS-containing complete medium + 100 µL of incomplete medium containing cells, resulting in a final FBS concentration of 10%. A zero adjustment group (background) was also set: 200 µL of the culture medium alone (100 µL of 20% FBS-containing complete medium + 100 µL of incomplete medium), without drugs and cells. For each concentration group, four replicate wells were set.
After incubation for 48 hrs under the experimental conditions, the supernatant was discarded, and 110 µL of CCK-8 working solution (100 µL of 10% FBS-containing complete medium and 10 µL of CCK-8 solution) were added to each well. The cells were further incubated for 4 hrs, and the optical density value at a wavelength of 450 nm (A450) was then measured for each well using a microplate reader. The average value for the wells of each treatment group (T) was compared with the average value for the negative control wells (C). The percent inhibition rate of each concentration group was calculated using the following formula: [Inhibition rate = (1 - T/C) × 100%], and the half-maximal inhibitory concentration (IC50) was calculated.

[2] = system: TE.354.T cells (human cutaneous basal cell carcinoma); assay: cells; details: 72 h, read-out: half-maximal inhibitory concentration
Method: The percent inhibition rate of each concentration group was calculated using the following formula: [Inhibition rate = (1 - T/C) × 100%], and the half-maximal inhibitory concentration (IC50) was calculated.

[3] = system: A431 cells; details: 48 hrs
Method: as §1, with “Meanwhile, a negative control group was set: each well received 100 µL of 20% FBS-containing complete medium + 100 µL of incomplete medium containing cells, resulting in a final FBS concentration of 10%. A zero adjustment group (background) was also set: 200 µL of the culture medium alone (100 µL of 20% FBS-containing complete medium + 100 µL of incomplete medium), without drugs and cells. For each concentration group, four replicate wells were set.” left out
(§2) After incubation for 48 hrs under the experimental conditions, the supernatant was discarded, and 110 µL of CCK-8 working solution (100 µL of 10% FBS-containing complete medium and 10 µL of CCK-8 solution) were added to each well. The cells were further incubated for 4 hrs, and the optical density value at a wavelength of 450 nm (A450) was then measured for each well using a microplate reader. […]

[4] = system: SCL-1 cells; details: 48 hrs
Method: as §1, with “Meanwhile, a negative control group was set: each well received 100 µL of 20% FBS-containing complete medium + 100 µL of incomplete medium containing cells, resulting in a final FBS concentration of 10%. A zero adjustment group (background) was also set: 200 µL of the culture medium alone (100 µL of 20% FBS-containing complete medium + 100 µL of incomplete medium), without drugs and cells. For each concentration group, four replicate wells were set.” left out
as §2

[5] = not given; remark: listed apart in the source
[6] = 20 °C
[7] = system: COLO-16 cells; details: drug substance 0.8 mg/kg; intragastric administration, once every other day; after 21 days of treatment
[8] = for plasma drug concentrations above the LLOQ: topical gel 0.008-0.06 mg/cm^2, LLOQ 0.02 ng/mL
[9] = system: human liver cancer HepG2 cells; details: Patent No. CN 104736157 A; cited from earlier work

Compound: CO[C@H]1[C@H](O)[C@H](O[C@H]2CC[C@@]3(C)[C@H](CC[C@@H]4[C@@H]3CC[C@]3(C)[C@@H](C5=CC(=O)OC5)CC[C@]43O)C2)O[C@@H](C)[C@@H]1O [17β-neriifolin]
- Inhibition rate% ([1]; 2.5 ng/mL, 48 hrs): 6.9%
- Inhibition rate% ([1]; 25 ng/mL, 48 hrs): 72.7%
- Inhibition rate% ([1]; 50 ng/mL, 48 hrs): 77.9%
- Inhibition rate% ([1]; 100 ng/mL, 48 hrs): 89.5%
- IC50 ([1]; 48 hrs): 12.28
- inhibition at 0.0025 µg/mL ([1]; Homo sapiens, 48 h, read-out: Inhibition rate%, 2.5 ng/mL): 9%
- inhibition at 0.025 µg/mL ([1]; Homo sapiens, 48 h, read-out: Inhibition rate%, 25 ng/mL): 57.3%
- inhibition at 0.05 µg/mL ([1]; Homo sapiens, 48 h, read-out: Inhibition rate%, 50 ng/mL): 74.5%
- inhibition at 0.1 µg/mL ([1]; Homo sapiens, 48 h, read-out: Inhibition rate%, 100 ng/mL): 85.3%
- IC50 ([1]; Homo sapiens, 48 h): 0.0186 µg/mL (≈ 0.0348 µM)
- IC50 [2]: ~0.01 µg/mL (≈ 0.0187 µM)
- growth inhibitory effects [3]: strong growth inhibitory effects
- growth inhibitory effects [4]: strong growth inhibitory effects
- solubility: ~70 µg/mL (≈ 131 µM)
- Saturation solubility ([5]; 10% ethanol): 160 µg/mL
- Saturation solubility ([5]; 10% propylene glycol): 80 µg/mL
- Saturation solubility ([5]; 20% ethanol): 380 µg/mL
- Saturation solubility ([5]; 20% propylene glycol): 100 µg/mL
- Saturation solubility ([5]; 30% ethanol): 910 µg/mL
- Saturation solubility ([5]; 30% propylene glycol): 420 µg/mL
- Saturation solubility ([5]; 40% ethanol): 2170 µg/mL
- Saturation solubility ([5]; 40% propylene glycol): 750 µg/mL
- Dissolution behavior ([6]; Ethanol concentration 20%, sample concentration 8 mg/g): Dissolved
- Dissolution behavior ([6]; Ethanol concentration 45%, sample concentration 20 mg/g): Dissolved
- Dissolution behavior ([6]; Ethanol concentration 50%, sample concentration 24 mg/g): Dissolved
- Dissolution behavior ([6]; Ethanol concentration 66%, sample concentration 32 mg/g): Dissolved
- Dissolution behavior ([6]; Ethanol concentration 75%, sample concentration 40 mg/g): Dissolved
- Dissolution behavior ([6]; Ethanol concentration 100%, sample concentration 50 mg/g): Dissolved
- tumor inhibition rate [7]: greater than 80%
- plasma drug concentrations above the LLOQ ([8]; four Australian subjects): 0.021 to 0.101 ng/mL
- plasma drug concentrations above the LLOQ ([8]; seven Chinese subjects): 0.022 to 0.106 ng/mL
- dose dependence of systemic exposure ([8]; topical gel, 0.008-0.06 mg/cm^2 dose range): No dose-dependent increase
- cell cycle arrest and apoptosis [9]: induce cell cycle arrest and apoptosis
